17 compounds from patent publication US20260109712A1, “RIFAMYCINS FOR NONTUBERCULOUS MYCOBACTERIA” (priority 2022, published 2026) can be followed below.

One assay deals with M. abscessus ATCC 19977. Description: MIC assay in 96-well plate format, wild-type strain. It counts as cell-based, Mycobacterium abscessus. The settings on record: for MIC: M. abscessus ATCC 19977, 90% growth inhibition, read-out: WT Mab MIC; for MIC ratio: WT MIC/Δarr strain MIC; for fold loss of potency compared to 5a: MIC against M. abscessus; for MICWT: Table 10. On the procedure:
(§1) MIC determination was carried out in 96-well plate format as previously described.^[13-14] 96-well plates were initially set up with 100 μL of 7H9 per well. For each compound, a ten-point two-fold dilution series starting at twice the desired highest concentration was dispensed onto the 96-well plates using a Tecan D300e Digital Dispenser, with the DMSO concentration normalized to 2%. M. abscessus culture grown to mid-log phase (OD600=0.4-0.6) was diluted to OD600=0.1 (1×10^7 CFU/mL). […] Untreated control wells are included on each plate that contain bacteria suspension and 1% DMSO. Plates were sealed with parafilm, stored in boxes with wet paper towels and incubated at 37° C. with shaking (110 RPM). Plates were incubated for 3 days. To determine growth, OD600 was measured using a Tecan Infinite M200 plate reader on Day 0 and Day 3. Two biological replicates were performed. Clarithromycin was included in each experiment as a positive control.
(§2) For each well on the 96-well plate, bacterial growth was calculated by subtracting the Day 0 OD600 value from the Day 3 OD600 value. […] For compound-containing wells, percentage growth was calculated by dividing their growth values by the average drug-free bacterial growth for the compound series and multiplying by 100. For each compound series, we plotted percentage growth versus compound concentration.

Another assay deals with Δarr M. abscessus. Description: MIC assay, isogenic arr-deleted strain. It counts as cell-based, Mycobacterium abscessus. The note with it: for Δarr Mab MIC: arr-deleted strain, 90% growth inhibition; for MICΔorr: Table 10. On the procedure: as §1, §2

Molecules are shown by their SMILES. In brackets after ≈: the same amount, converted by molar mass.

For `CCC(C)C(=O)OC1C(C)C(OC)C=COC2(C)Oc3c(C)c(O)c4c(c3C2=O)C2=NC3(CCN(CC(C)C)CC3)NC2=C(NC(=O)C(C)=CC=CC(C)C(O)C(C)C(O)C1C)C4=O` (mixture of isomers) [5k], in the assay on M. abscessus ATCC 19977, the minimum inhibitory concentration (MIC) (usually the least concentration at which growth counts as inhibited) was 1.1 µM and the MIC ratio stood at 39.3. The “Δarr Mab MIC” value in the assay on Δarr M. abscessus amounted to 0.028 µM.
Regarding `CO[C@H]1/C=C/O[C@@]2(C)Oc3c(C)c(O)c4c(c3C2=O)C2=NC3(CCN(CC(C)C)CC3)NC2=C(NC(=O)/C(C)=C/C=C/[C@H](C)[C@H](O)[C@@H](C)[C@@H](O)[C@@H](C)[C@H](OC(=O)c2cccc(C)c2)[C@@H]1C)C4=O` [5c, 25-O-(3-methylbenzoyl)-25-O-desacetyrifabutin], in the assay on M. abscessus ATCC 19977, the MIC turned out to be 0.075 µM (≈ 0.0692 µg/mL) and the MIC ratio amounted to 1.2. For the same compound, the “Δarr Mab MIC” value in the assay with Δarr M. abscessus came to 0.065 µM.
With `CO[C@H]1/C=C/O[C@@]2(C)Oc3c(C)c(O)c4c(c3C2=O)C2=NC3(CCN(CC(C)C)CC3)NC2=C(NC(=O)/C(C)=C/C=C/[C@H](C)[C@H](O)[C@@H](C)[C@@H](O)[C@@H](C)[C@H](OC(=O)c2ccc(C)cc2)[C@@H]1C)C4=O` [5d, 25-O-(4-methylbenzoyl)-25-O-desacetyrifabutin], in the assay with M. abscessus ATCC 19977, the MIC was found to be 0.2 µM (≈ 0.185 µg/mL) and the MIC ratio is 1.8. Further, the “Δarr Mab MIC” value in the assay with Δarr M. abscessus amounted to 0.11 µM.
In the same order, the values of `CO[C@H]1/C=C/O[C@@]2(C)Oc3c(C)c(O)c4c(c3C2=O)C2=NC3(CCN(CC(C)C)CC3)NC2=C(NC(=O)/C(C)=C/C=C/[C@H](C)[C@H](O)[C@@H](C)[C@@H](O)[C@@H](C)[C@H](OC(=O)c2ccccc2F)[C@@H]1C)C4=O` [5e, 25-O-(2-fluorobenzoyl)-25-O-desacetyrifabutin] are 0.06 µM (≈ 0.0556 µg/mL), 1.0 and 0.058 µM.
`CO[C@H]1/C=C/O[C@@]2(C)Oc3c(C)c(O)c4c(c3C2=O)C2=NC3(CCN(CC(C)C)CC3)NC2=C(NC(=O)/C(C)=C/C=C/[C@H](C)[C@H](O)[C@@H](C)[C@@H](O)[C@@H](C)[C@H](OC(=O)c2ccccc2Cl)[C@@H]1C)C4=O` [5f, 25-O-(2-chlorobenzoyl)-25-O-desacetyrifabutin]: in the assay on M. abscessus ATCC 19977, the MIC came to 0.043 µM (≈ 0.0406 µg/mL) and the MIC ratio is given as 0.9. Moreover, the “Δarr Mab MIC” value with Δarr M. abscessus came to 0.049 µM.
As to `COc1ccccc1C(=O)O[C@H]1[C@H](C)[C@H](O)[C@H](C)[C@@H](O)[C@@H](C)/C=C/C=C(\C)C(=O)NC2=C3NC4(CCN(CC(C)C)CC4)N=C3c3c(c(O)c(C)c4c3C(=O)[C@@](C)(O/C=C/[C@H](OC)[C@H]1C)O4)C2=O` [5g, 25-O-(2-methoxybenzoyl)-25-O-desacetyrifabutin], in the assay with M. abscessus ATCC 19977, the MIC was found to be 0.03 µM (≈ 0.0282 µg/mL) and the MIC ratio is reported as 1.0. Further, the “Δarr Mab MIC” value with Δarr M. abscessus was determined as 0.03 µM.
As to `CO[C@H]1/C=C/O[C@@]2(C)Oc3c(C)c(O)c4c(c3C2=O)C2=NC3(CCN(CC(C)C)CC3)NC2=C(NC(=O)/C(C)=C/C=C/[C@H](C)[C@H](O)[C@@H](C)[C@@H](O)[C@@H](C)[C@H](OC(=O)c2ccccc2C(F)(F)F)[C@@H]1C)C4=O` [5h, 25-O-(2-trifluoromethylbenzoyl)-25-O-desacetyrifabutin], in the assay with M. abscessus ATCC 19977, the MIC stood at 0.1 µM (≈ 0.0977 µg/mL), the “fold loss of potency compared to 5a” value came out at 2 fold and the MIC ratio is recorded as 0.8. Besides, the “Δarr Mab MIC” value in the assay with Δarr M. abscessus was 0.12 µM.
Consider `CO[C@H]1/C=C/O[C@@]2(C)Oc3c(C)c(O)c4c(c3C2=O)C2=NC3(CCN(CC(C)C)CC3)NC2=C(NC(=O)/C(C)=C/C=C/[C@H](C)[C@H](O)[C@@H](C)[C@@H](O)[C@@H](C)[C@H](OC(=O)c2ccccc2-c2ccccc2)[C@@H]1C)C4=O` [5i, 25-O-(2-phenylbenzoyl)-25-O-desacetyrifabutin], for which, in the assay with M. abscessus ATCC 19977, the minimal inhibitory concentration (MIC) worked out at 0.26 µM (≈ 0.256 µg/mL), the “fold loss of potency compared to 5a” value is 5 fold and the MIC ratio is 1.8. For the same compound, in the assay on Δarr M. abscessus, the “Δarr Mab MIC” value worked out at 0.14 µM.
Regarding `CCC(CC)C(=O)O[C@H]1[C@H](C)[C@H](O)[C@H](C)[C@@H](O)[C@@H](C)/C=C/C=C(\C)C(=O)NC2=C3NC4(CCN(CC(C)C)CC4)N=C3c3c(c(O)c(C)c4c3C(=O)[C@@](C)(O/C=C/[C@H](OC)[C@H]1C)O4)C2=O` [5l], in the assay with M. abscessus ATCC 19977, the minimum inhibitory concentration (MIC) amounted to 1.15 µM (≈ 1.04 µg/mL) and the MIC ratio came out at 23.5. For the same compound, in the assay on Δarr M. abscessus, the “Δarr Mab MIC” value was found to be 0.049 µM.
`CO[C@H]1/C=C/O[C@@]2(C)Oc3c(C)c(O)c4c(c3C2=O)C2=NC3(CCN(CC(C)C)CC3)NC2=C(NC(=O)/C(C)=C/C=C/[C@H](C)[C@H](O)[C@@H](C)[C@@H](O)[C@@H](C)[C@H](OC(=O)c2nccs2)[C@@H]1C)C4=O` [5o, 25-O-(2-thiazolecarbonyl)-25-O-desacetyrifabutin]: in the assay with M. abscessus ATCC 19977, the minimum inhibitory concentration (MIC) was determined as 0.017 µM (≈ 0.0156 µg/mL) and the MIC ratio is 1.0. Besides, in the assay on Δarr M. abscessus, the “Δarr Mab MIC” value is 0.017 µM.
The compound `CO[C@H]1/C=C/O[C@@]2(C)Oc3c(C)c(O)c4c(c3C2=O)C2=NC3(CCN(CC(C)C)CC3)NC2=C(NC(=O)/C(C)=C/C=C/[C@H](C)[C@H](O)[C@@H](C)[C@@H](O)[C@@H](C)[C@H](OC(=O)c2cccc(C)c2)[C@@H]1C)C4=O` [UMN8] had an MICWT with M. abscessus ATCC 19977 of 0.075 µM. The same compound showed an MICΔorr against Δarr M. abscessus of 0.065 µM.
In the same order, the values of `CO[C@H]1/C=C/O[C@@]2(C)Oc3c(C)c(O)c4c(c3C2=O)C2=NC3(CCN(CC(C)C)CC3)NC2=C(NC(=O)/C(C)=C/C=C/[C@H](C)[C@H](O)[C@@H](C)[C@@H](O)[C@@H](C)[C@H](OC(=O)c2ccc(C)cc2)[C@@H]1C)C4=O` [UMN9] are 0.2 µM and 0.11 µM.
As for `CCC(CC)C(=O)O[C@H]1[C@H](C)[C@H](O)[C@H](C)[C@@H](O)[C@@H](C)/C=C/C=C(\C)C(=O)NC2=C3NC4(CCN(CC(C)C)CC4)N=C3c3c(c(O)c(C)c4c3C(=O)[C@@](C)(O/C=C/[C@H](OC)[C@H]1C)O4)C2=O` [UMN17], the MICWT in the assay on M. abscessus ATCC 19977 came out at 1.15 µM. This compound also registered an MICΔorr in the assay on Δarr M. abscessus of 0.049 µM.
`CCC(C)C(=O)O[C@H]1[C@H](C)[C@H](O)[C@H](C)[C@@H](O)[C@@H](C)/C=C/C=C(\C)C(=O)NC2=C3NC4(CCN(CC(C)C)CC4)N=C3c3c(c(O)c(C)c4c3C(=O)[C@@](C)(O/C=C/[C@H](OC)[C@H]1C)O4)C2=O` (stereo partly shown) [UMN21] came in with an MICWT with M. abscessus ATCC 19977 of 1.1 µM. The compound also returned an MICΔorr against Δarr M. abscessus of 0.028 µM.
For `CO[C@H]1/C=C/O[C@@]2(C)Oc3c(C)c(O)c4c(c3C2=O)C2=NC3(CCN(CC(C)C)CC3)NC2=C(NC(=O)/C(C)=C/C=C/[C@H](C)[C@H](O)[C@@H](C)[C@@H](O)[C@@H](C)[C@H](OC(=O)c2ccccc2-c2ccccc2)[C@@H]1C)C4=O` [UMN25], the MICWT in the assay on M. abscessus ATCC 19977 turned out to be 0.26 µM. Further, the MICΔorr against Δarr M. abscessus came out at 0.14 µM.
In the same order, the values of `CO[C@H]1/C=C/O[C@@]2(C)Oc3c(C)c(O)c4c(c3C2=O)C2=NC3(CCN(CC(C)C)CC3)NC2=C(NC(=O)/C(C)=C/C=C/[C@H](C)[C@H](O)[C@@H](C)[C@@H](O)[C@@H](C)[C@H](OC(=O)c2ccccc2C(F)(F)F)[C@@H]1C)C4=O` [UMN30] are 0.1 µM and 0.12 µM.
For `CO[C@H]1/C=C/O[C@@]2(C)Oc3c(C)c(O)c4c(c3C2=O)C2=NC3(CCN(CC(C)C)CC3)NC2=C(NC(=O)/C(C)=C/C=C/[C@H](C)[C@H](O)[C@@H](C)[C@@H](O)[C@@H](C)[C@H](OC(=O)Nc2cccc(-c3ccccc3)c2)[C@@H]1C)C4=O` [UMN31], the MICWT in the assay on M. abscessus ATCC 19977 was determined as 0.27 µM. The compound further had an MICΔorr with Δarr M. abscessus of 0.43 µM.
